Read-outs that look alike come from different tables or passages of the source.
Assays:
HIV-1 (strain IIIB) = assay: Antiviral activity assay in MT4 cells (propidium iodide based); type: cell-based; settings: wild type HIV-1 virus, MT4 cells, read-out: Wildtype virus - IC50
Outline: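 Compound serial dilutions in RPMI/FCS received MT4 cells pre-infected 1 hr at 37°C with HIV-1 IIIB at 100×TCID50. After 5 days' culture and Nonidet-40 lysis, well DNA content was measured by propidium iodide dye; mock-infected cells served as control.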

[1] = test system: D545701-14 multi protease inhibitor resistant virus; assay: Anti-viral activity against resistant virus D545701-14 in MT4 cells; type: cell-based, HIV-1
Experimental: (§1) Exponentially growing MT4 cells were harvested and centrifuged at 1000 rpm for 10 min in a Jouan centrifuge (model CR 4 12). […] Cell aliquots were infected by the addition of HIV-1 (strain IIIB) diluted to give a viral multiplicity of infection of 100×TCID50. […] Cell infection was allowed to proceed for 1 hr at 37° in a tissue culture incubator with humidified 5% CO2 atmosphere. After the 1 hr incubation the virus/cell suspensions were diluted 6-fold with fresh medium, and 125 μl of the cell suspension was added to each well of the plate containing pre-diluted compound. Plates were then placed in a tissue culture incubator with humidified 5% CO2 for 5 days. At the end of the incubation period, 27 μl of 5% Nonidet-40 was added to each well of the incubation plate. After thorough mixing with a Costar multitip pipetter, 60 μl of the mixture was transferred to filter-bottomed 96-well plates. The plates were analyzed in an automated assay instrument (Screen Machine, Idexx Laboratories). The assay makes use of a propidium iodide dye to estimate the DNA content of each well.
(§2) Anti-Viral Activity Against Resistant Viruses
EP13 and DS45701, two multi protease inhibitor resistant viruses were used to assess potency against mutant viruses. These viruses contain the following mutations relative to the consensus sequence of wild type virus: […]

[2] = test system: EP13 multi protease inhibitor resistant virus; assay: Anti-viral activity against resistant virus EP13 in MT4 cells; type: cell-based, HIV-1
Experimental: as §1, §2
EP13 and DS45701, two multi protease inhibitor resistant viruses were used to assess potency against mutant viruses. These viruses contain the following mutations relative to the consensus sequence of wild type virus:
EP13: Protease amino acid sequence: M46I, L63P, A71V, V82F/L, I84V; No reverse transcriptase mutations.

[3] = Human immunodeficiency virus 1, IIIB
[4] = Human immunodeficiency virus 1, MT4, read-out: D545701-14 mutant - IC50, D545701-14 multi protease inhibitor resistant virus, MT4 cells
[5] = Human immunodeficiency virus 1, MT4, read-out: EP13 mutant IC50, EP13 multi protease inhibitor resistant virus, MT4 cells
[6] = D545701-14 multi protease inhibitor resistant virus, MT4 cells, read-out: D545701-14 mutant - IC50
[7] = EP13 multi protease inhibitor resistant virus, MT4 cells, read-out: EP13 mutant IC50

Row | Structure (SMILES) | IC50 (HIV-1 (strain IIIB); [3]) [µM] | IC50 [1, 4] [µM] | IC50 [2, 5] [µM] | IC50 (HIV-1 (strain IIIB)) [µM] | IC50 [1, 6] [µM] | IC50 [2, 7] [µM] | IC50 ([1]; Human immunodeficiency virus 1, MT4, read-out: D545701-14 mutant - IC50) [µM] | IC50 ([2]; Human immunodeficiency virus 1, MT4, read-out: EP13 mutant IC50) [µM]
1 | CC(C)CN(C[C@@H](O)[C@H](Cc1ccc(OC(=O)NC(C)C)cc1)NC(=O)O[C@H]1CO[C@H]2OCC[C@H]21)S(=O)(=O)c1ccc2c(c1)OCO2 [Compound 310, (3R,3aS,6aR)-Hexahydrofuro[2,3-b]furan-3-yl (1S,2R)-3-[(1,3-benzodioxol-5-ylsulfonyl)(isobutyl)amino]-2-hydroxy-1-(4-{[(isopropylamino)carbonyl]oxy}benzyl)propylcarbamate] | 0.001 to 0.01 | 0.01 to 0.1 | 0.001 to 0.01 |  |  |  |  | 
2 | CC(C)CN(C[C@@H](O)[C@H](Cc1ccc(Oc2ccc(C#N)cn2)cc1)NC(=O)O[C@H]1CO[C@H]2OCC[C@H]21)S(=O)(=O)c1ccc2c(c1)OCO2 [Compound 335, (3R,3aS,6aR)-hexahydrofuro[2,3-b]furan-3-yl (1S,2R)-3-[(1,3-benzodioxol-5-ylsulfonyl)(isobutyl)amino]-1-{4-[(S-cyano-2-pyridinyl)oxy]benzyl}-2-hydroxypropylcarbamate] | 0.001 to 0.01 | 0.001 to 0.01 | 0.001 to 0.01 |  |  |  |  | 
3 | CC(C)CN(C[C@@H](O)[C@H](Cc1ccc(OCCCN2CCSC2)cc1)NC(=O)O[C@H]1CO[C@H]2OCC[C@H]21)S(=O)(=O)c1ccc2c(c1)OCO2 [Compound 277, (3R,3aS,6aR)-hexahydrofuro[2,3-b]furan-3-yl (1S,2R)-3-[(1,3-benzodioxol-5-ylsulfonyl)(isobutyl)amino]-2-hydroxy-1-{4-[3-(1,3-thiazolidin-3-yl)propoxy]benzyl}propylcarbamate] | 0.001 to 0.01 | 0.001 to 0.01 | 0.001 to 0.01 |  |  |  |  | 
4 | CC(C)CN(C[C@@H](O)[C@H](Cc1ccc(OCCCNc2ncccn2)cc1)NC(=O)OC1CO[C@H]2OCC[C@@H]12)S(=O)(=O)c1ccc2c(c1)OCO2 (stereo in doubt) [Compound 271, (3R,3aS,6aR)-hexahydrofuro[2,3-b]furan-3-yl (1S,2R)-3-[(1,3-benzodioxol-5-ylsulfonyl)(isobutyl)amino]-2-hydroxy-1-{4-[3-(2-pyrimidinylamino)propoxy]benzyl}propylcarbamate] | 0.001 to 0.01 | 0.001 to 0.01 | 0.001 to 0.01 |  |  |  |  | 
5 | CC(C)CN(C[C@@H](O)[C@H](Cc1ccc(OCc2cccc(C#N)c2)cc1)NC(=O)O[C@H]1CO[C@H]2OCC[C@H]21)S(=O)(=O)c1ccc2c(c1)OCO2 [Compound 367, (3R,3aS,6aR)-Hexahydrofuro[2,3-b]furan-3-yl-N (1S,2R)-1-[4-(3-cyanobenzyloxy)-benzyl]-3-i-butyl-[(3,4-methylenedioxyphenyl)sulfonyl]-amino-2-hydroxypropyl-carbamate] |  |  |  | < 0.001 | 0.001 to 0.01 | < 0.001 |  | 
6 | CC(C)CN(CC(O)[C@H](Cc1ccc(OCc2ccccn2)cc1)NC(=O)O[C@H]1CO[C@H]2OCC[C@H]21)S(=O)(=O)c1ccc2c(c1)OCCO2 (stereo in doubt) [Compound 337, (3R,3aS,6aR)-hexahydrofuro[2,3-b]furan-3-yl (1S,2S)-3-[(2,3-dihydro-1,4-benzodioxin-6-ylsulfonyl)(isobutyl)amino]-2-hydroxy-1-[4-(2-pyridinylmethoxy)benzyl]propylcarbamate] | 0.001 to 0.01 | 0.001 to 0.01 | 0.001 to 0.01 |  |  |  |  | 
7 | Cc1noc(C)c1-c1nc(COc2ccc(C[C@H](NC(=O)O[C@H]3CO[C@H]4OCC[C@H]43)[C@H](O)CN(CC(C)C)S(=O)(=O)c3ccc4c(c3)OCO4)cc2)no1 [Compound 389, (3R,3aS,6aR)-hexahydrofuro[2,3-b]furan-3-yl (1S,2R)-3-[(1,3-benzodioxol-5-ylsulfonyl)(isobutyl)amino]-1-(4-{[5-(3,5-dimethyl-4-isoxazolyl)-1,2,4-oxadiazol-3-yl]methoxy}benzyl)-2-hydroxypropylcarbamate] | 0.001 to 0.01 | 0.001 to 0.01 | 0.001 to 0.01 |  |  |  |  | 
8 | CC(C)CN(C[C@@H](O)[C@H](Cc1ccc(OC(N)=O)cc1)NC(=O)O[C@H]1CO[C@H]2OCC[C@H]21)S(=O)(=O)c1ccc2c(c1)OCO2 [Compound 312, (3R,3aS,6aR)-Hexahydrofuro[2,3-b]furan-3-yl (1S,2R)-1-{4-[(aminocarbonyl)oxy]benzyl}-3-[(1,3-benzodioxol-5-ylsulfonyl)(isobutyl)amino]-2-hydroxypropylcarbamate] | 0.01 to 0.1 | 0.01 to 0.1 | 0.001 to 0.01 |  |  |  |  | 
9 | CC(=O)NCCOc1ccc(C[C@H](NC(=O)O[C@H]2CO[C@H]3OCC[C@H]32)[C@H](O)CN(CC(C)C)S(=O)(=O)c2ccc3c(c2)OCO3)cc1 [Compound 355, (3R,3aS,6aR)hexahydrofuro[2,3-b]furan-3-yl (1S,2R)-3-[(1,3-benzodioxol-5-ylsulfonyl)(isobutyl)amino]-2-hydroxy-1-[4-(2-[acetylamino]ethoxy)benzyl]propylcarbamate] | 0.01 to 0.1 | 0.01 to 0.1 | 0.01 to 0.1 |  |  |  |  | 
10 | CC(=O)NCCCOc1ccc(C[C@H](NC(=O)O[C@H]2CO[C@H]3OCC[C@H]32)[C@H](O)CN(CC(C)C)S(=O)(=O)c2ccc3c(c2)OCO3)cc1 [Compound 229] |  |  |  | 0.01 to 0.1 | 0.001 to 0.01 | 0.001 to 0.01 |  | 
11 | CC(C)CN(C[C@@H](O)[C@H](Cc1ccc(OCc2ccccn2)cc1)NC(=O)O[C@H]1CO[C@H]2OCCC21)S(=O)(=O)c1cccc(N)c1 (stereo partly drawn) [Compound 293] | 0.001 to 0.01 | 0.001 to 0.01 | 0.001 to 0.01 |  |  |  |  | 
12 | CC(C)CN(C[C@@H](O)[C@H](Cc1ccc(OCC(F)(F)F)cc1)NC(=O)O[C@H]1CO[C@H]2OCC[C@H]21)S(=O)(=O)c1ccc2c(c1)OCO2 [Compound 304, (3R,3aS,6aR)-hexahydrofuro[2,3-b]furan-3-yl (1S,2R)-3-[(1,3-benzodioxol-5-ylsulfonyl)(isobutyl)amino]-2-hydroxy-1-[4-(2,2,2-trifluoroethoxy)benzyl]propylcarbamate] | 0.001 to 0.01 | 0.001 to 0.01 | 0.001 to 0.01 |  |  |  |  | 
13 | CC(C)CN(C[C@@H](O)[C@H](Cc1ccc(OCCCNC(=O)OC(C)(C)C)cc1)NC(=O)O[C@H]1CO[C@H]2OCC[C@H]21)S(=O)(=O)c1ccc2c(c1)OCO2 [Compound 221, (3R,3aS,6aR)-hexahydrofuro[2,3-b]furan-3-yl (1S,2R)-3-[(1,3-benzodioxol-5-ylsulfonyl)(isobutyl)amino]-1-(4-{3-[(tert-butoxycarbonyl)amino]propoxy}benzyl)-2-hydroxypropylcarbamate] | 0.001 to 0.01 | 0.001 to 0.01 | 0.001 to 0.01 |  |  |  |  | 
14 | COc1ccc(CCOc2ccc(C[C@H](NC(=O)O[C@H]3CO[C@H]4OCC[C@H]43)[C@H](O)CN(CC(C)C)S(=O)(=O)c3ccc4c(c3)OCO4)cc2)cc1 [Compound 206] |  |  |  | 0.001 to 0.01 | 0.01 to 0.1 | 0.01 to 0.1 |  | 
15 | CC(C)CN(C[C@@H](O)[C@H](Cc1ccc(OCc2cccc(C#N)c2)cc1)NC(=O)O[C@H]1CO[C@H]2OCC[C@H]21)S(=O)(=O)c1ccc2c(c1)OC(F)(F)O2 [Compound 342, (3R,3aS,6aR)-hexahydrofuro[2,3-b]furan-3-yl (1S,2R)-1-{4-[(3-cyanobenzyl)oxy]benzyl}-3-[[(2,2-difluoro-1,3-benzodioxol-5-yl)sulfonyl](isobutyl)amino]-2-hydroxypropylcarbamate] | 0.01 to 0.1 | 0.01 to 0.1 | 0.01 to 0.1 |  |  |  |  | 
16 | COC(=O)NCCOc1ccc(C[C@H](NC(=O)O[C@H]2CO[C@H]3OCC[C@H]32)[C@H](O)CN(CC(C)C)S(=O)(=O)c2ccc3c(c2)OCO3)cc1 [Compound 226, (3R,3aS,6aR)-hexahydrofuro[2,3-b]furan-3-yl (1S,2R)-3-[(1,3-benzodioxol-5-ylsulfonyl)(isobutyl)amino]-2-hydroxy-1-(4-{2-[(methoxycarbonyl)amino]ethoxy}benzyl)propylcarbamate] | < 0.001 |  |  |  |  |  | 0.001 to 0.01 | < 0.001
17 | CC(C)CN(C[C@@H](O)[C@H](Cc1ccc(OCCN2CCSC2)cc1)NC(=O)O[C@H]1CO[C@H]2OCC[C@H]21)S(=O)(=O)c1ccc2c(c1)OCO2 [Compound 324, (3R,3aS,6aR)-Hexahydrofuro[2,3-b]furan-3-yl (1S,2R)-3-[(1,3-benzodioxol-5-ylsulfonyl)(isobutyl)amino]-2-hydroxy-1-{4-[2-(1,3-thiazolidin-3-yl)ethoxy]benzyl}propylcarbamate] | 0.001 to 0.01 | 0.001 to 0.01 | 0.001 to 0.01 |  |  |  |  | 

— US8455497B2, “Inhibitors of aspartyl protease” (Vertex Pharmaceuticals Incorporated, priority 1999, dated 2013)
